± gives the standard deviation of the averaged measurements.
Legend:
Assay in all cases: LOEC (log10 uM (lowest observed effect concentration))
[1] = compound: O=C(O)C(F)(F)OC(F)(F)C(F)(F)OC(F)(F)C(F)(F)C(F)(F)C(F)(F)F [Perfluoro-3,6-dioxadecanoic acid]
Description: (§1)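 BioMAP Diversity Plus panel in human primary cell co-cultures, 4 concentrations in duplicate blinded samples. Responses are log10 fold change versus DMSO control, processed with tcpl v2.1.0. A hit is called when responses at any concentration exceed the cutoff (the larger of 3*bmad or log10(1.2)); the lowest observed effect concentration (modl_ga, log10 uM) is reported for hits.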

[2] = compound: O=S(=O)(O)C(F)(F)C(F)(F)C(F)(F)C(F)(F)C(F)(F)C(F)(F)C(F)(F)C(F)(F)F [Perfluorooctanesulfonic acid]
Description: as §1

[3] = compound: O=S(=O)(O)C(F)(F)C(F)(F)C(F)(F)C(F)(F)C(F)(F)C(F)(F)C(F)(F)C(F)(F)F [Potassium perfluorooctanesulfonate]
Description: as §1

[4] = compound: O=C(O)C(F)(F)C(F)(F)C(F)(F)C(F)(F)C(F)(F)C(F)(F)C(F)(F)C(F)(F)Cl [9-Chloro-perfluorononanoic acid]
Description: as §1

[5] = compound: CNS(=O)(=O)C(F)(F)C(F)(F)C(F)(F)C(F)(F)C(F)(F)C(F)(F)C(F)(F)C(F)(F)F [N-Methylperfluorooctanesulfonamide]
Description: as §1

Azathioprine = compound: Cn1cnc([N+](=O)[O-])c1Sc1ncnc2[nH]cnc12 [Azathioprine]
Description: as §1

[6] = compound: C=CC(=O)OCCC(F)(F)C(F)(F)C(F)(F)C(F)(F)F [2-(Perfluorobutyl)ethyl acrylate]
Description: as §1

[7] = compound: FC(F)(F)C(F)(F)C(F)(F)C(F)(F)C(F)(F)C(F)(F)C(F)(F)CCI [1-Iodo-1H,1H,2H,2H-perfluorononane]
Description: as §1

[8] = compound: O=C(O)C(F)(F)C(F)(F)C(F)(F)C(F)(F)C(F)(F)C(F)(F)C(F)(F)C(F)(F)C(F)(F)C(F)(F)C(F)(F)C(F)(F)F [Perfluorotridecanoic acid]
Description: as §1

Perfluorooctanamidine = compound: N=C(N)C(F)(F)C(F)(F)C(F)(F)C(F)(F)C(F)(F)C(F)(F)C(F)(F)F [Perfluorooctanamidine]
Description: as §1

[9] = compound: O=P(O)(O)CCC(F)(F)C(F)(F)C(F)(F)C(F)(F)C(F)(F)C(F)(F)C(F)(F)C(F)(F)F [((Perfluorooctyl)ethyl)phosphonic acid]
Description: as §1

[10] = compound: CC(C)(C)C(=O)CC(=O)C(F)(F)C(F)(F)C(F)(F)F [(Heptafluorobutanoyl)pivaloylmethane]
Description: as §1

Perfluorooctanamide = compound: NC(=O)C(F)(F)C(F)(F)C(F)(F)C(F)(F)C(F)(F)C(F)(F)C(F)(F)F [Perfluorooctanamide]
Description: as §1

[11] = compound: O=C(O)C(F)(F)C(F)(F)C(F)(F)C(F)(F)C(F)(F)C(F)(F)C(F)(F)C(F)(F)C(F)(F)C(F)(F)C(F)(F)C(F)(F)C(F)(F)F [Perfluorotetradecanoic acid]
Description: as §1

[12] = compound: O=S(=O)(O)C(F)(F)C(F)(F)C(F)(F)C(F)(F)F [Perfluorobutanesulfonic acid]
Description: as §1

[13] = compound: O=C(O)CCC(F)(F)C(F)(F)C(F)(F)C(F)(F)C(F)(F)F [2H,2H,3H,3H-Perfluorooctanoic acid]
Description: as §1

Test System	LOEC (log10 uM) [1]	LOEC (log10 uM) [2]	LOEC (log10 uM) [3]	LOEC (log10 uM) [4]	LOEC (log10 uM) [6]	LOEC (log10 uM) (Perfluorooctanamidine)	further results
BE3C HLADR down	1.54 ± 0.34	1.3	1.3	1.3	–	–	–
BE3C PAI1 down	–	1.3	1.3	1.3	–	–	LOEC (log10 uM) [5]: 0.845
hDFCGF Proliferation down	–	–	1.78	1.78	1.54 ± 0.34	1.78	LOEC (log10 uM) (Azathioprine): 1.48; LOEC (log10 uM) [7]: 0.301; LOEC (log10 uM) [8]: 0.477; LOEC (log10 uM) [9]: 1.78
IMphg VCAM1 down	–	–	–	1.78	–	1.78	LOEC (log10 uM) [8]: 1.22 ± 0.37
IMphg IL1a up	–	–	–	–	–	–	LOEC (log10 uM) [5]: 1.54 ± 0.34
BE3C uPAR up	–	–	1.54 ± 0.34	–	–	–	–
hDFCGF PAI1 down	–	–	–	1.78	–	1.78	LOEC (log10 uM) (Azathioprine): 1.48; LOEC (log10 uM) [9]: 1.78
3C Thrombomodulin up	–	–	–	1.78	–	–	LOEC (log10 uM) [10]: 1.78
BT Bcell Proliferation down	–	–	–	–	1.78	1.78	LOEC (log10 uM) (Azathioprine): 1.48; LOEC (log10 uM) [9]: 1.78
3C VCAM1 down	–	–	–	1.78	1.54 ± 0.34	1.78	–
KF3CT MMP9 down	–	–	–	1.3	–	–	LOEC (log10 uM) (Perfluorooctanamide): 1.78
BE3C IL8 down	–	1.3	–	1.54 ± 0.34	–	–	LOEC (log10 uM) [5]: 1.54 ± 0.34
BE3C IP10 down	1.54 ± 0.34	1.3	1.3	1.3	–	–	–
BE3C EGFR down	1.78	1.3	1.3	1.3	–	–	–
LPS MCSF down	–	–	–	–	–	–	LOEC (log10 uM) (Azathioprine): 1.48; LOEC (log10 uM) [8]: 1.48; LOEC (log10 uM) [9]: 1.78
KF3CT PAI1 down	–	1.78	1.78	1.3	–	–	–
KF3CT IL8 down	1.78	–	–	1.78	–	–	LOEC (log10 uM) [5]: 1.3
IMphg ESelectin down	–	–	–	–	–	–	LOEC (log10 uM) (Azathioprine): 1.48; LOEC (log10 uM) [5]: 0.845
BF4T IL8 down	–	–	–	–	–	–	LOEC (log10 uM) [5]: 1.78
CASM3C MIG down	–	–	–	–	1.78	–	LOEC (log10 uM) [5]: 1.07 ± 0.32
BE3C tPA up	–	–	–	–	–	–	LOEC (log10 uM) [9]: 1.3
hDFCGF ITAC down	1.54 ± 0.34	–	1.78	0.573 ± 0.39	1.07 ± 0.32	–	LOEC (log10 uM) (Azathioprine): 0.977 ± 0.71; LOEC (log10 uM) [8]: 0.239 ± 0.34
hDFCGF VCAM1 down	1.3	1.78	1.78	1.78	1.3	1.54 ± 0.34	LOEC (log10 uM) (Azathioprine): 1.48; LOEC (log10 uM) [8]: 0.977 ± 0.71; LOEC (log10 uM) [5]: 0.573 ± 0.39
SAg Proliferation down	–	–	–	–	1.54 ± 0.34	1.78	LOEC (log10 uM) (Azathioprine): 0.954
3C Proliferation down	1.04 ± 1	–	–	1.78	1.78	1.78	LOEC (log10 uM) (Azathioprine): 1.48; LOEC (log10 uM) [11]: -0.199 ± 0.71; LOEC (log10 uM) [8]: 1.22 ± 0.37; LOEC (log10 uM) [10]: 1.78; LOEC (log10 uM) [5]: 1.54 ± 0.34; LOEC (log10 uM) [9]: 0.801 ± 0.71
BE3C SRB down	–	1.3	1.3	1.54 ± 0.34	–	–	–
BE3C MMP1 up	1.3	–	0.573 ± 0.39	–	–	1.78	–
4H VCAM1 down	–	–	–	1.78	–	1.78	LOEC (log10 uM) (Azathioprine): 1.48; LOEC (log10 uM) [11]: 0.0731 ± 0.32; LOEC (log10 uM) [8]: 0.716 ± 0.34

Test System	LOEC (log10 uM) [1]	LOEC (log10 uM) [2]	LOEC (log10 uM) [3]	LOEC (log10 uM) [4]	LOEC (log10 uM) [6]	LOEC (log10 uM) (Perfluorooctanamidine)	further results
CASM3C VCAM1 down	–	–	–	–	1.78	–	LOEC (log10 uM) (Azathioprine): 1.48; LOEC (log10 uM) [8]: 0.954; LOEC (log10 uM) [5]: 0.801 ± 0.71
BE3C IL1a down	1.78	1.78	–	1.54 ± 0.34	–	–	–
LPS CD69 down	1.78	–	–	1.78	–	1.78	–
SAg PBMCCytotoxicity down	–	–	–	–	1.78	1.78	–
SAg CD40 down	–	–	–	1.78	1.78	–	LOEC (log10 uM) [8]: 1.22 ± 0.37; LOEC (log10 uM) [9]: 1.78
KF3CT PAI1 up	–	–	–	–	–	–	LOEC (log10 uM) [5]: 0.801 ± 0.71
4H Eotaxin3 down	–	–	–	–	–	1.78	LOEC (log10 uM) [11]: 0.345 ± 0.71; LOEC (log10 uM) [9]: 1.78
hDFCGF MCSF down	1.78	–	1.78	1.78	1.3	1.78	LOEC (log10 uM) (Azathioprine): 1.48
BE3C ITAC down	–	1.54 ± 0.34	1.3	1.3	–	–	–
IMphg IL8 up	–	–	–	–	–	–	LOEC (log10 uM) [12]: 1.78
BF4T Eotaxin3 down	0.845	–	–	0.801 ± 0.71	–	–	LOEC (log10 uM) [9]: 1.54 ± 0.34
LPS PGE2 up	–	–	–	–	–	–	LOEC (log10 uM) [10]: 1.78; LOEC (log10 uM) [9]: 1.78
SAg SRB down	–	–	–	1.78	–	1.78	LOEC (log10 uM) [9]: 1.78
LPS CD40 down	–	–	–	–	1.78	1.78	LOEC (log10 uM) [9]: 1.78
IMphg ESelectin up	–	1.78	1.78	–	–	–	LOEC (log10 uM) [9]: 1.78
3C HLADR down	–	–	–	1.78	–	–	LOEC (log10 uM) [5]: 1.3
IMphg IL10 down	1.78	1.78	1.78	1.78	–	–	LOEC (log10 uM) (Azathioprine): 1.48; LOEC (log10 uM) [13]: 1.78; LOEC (log10 uM) [9]: 1.78
MyoF CollagenIV up	1.78	–	–	1.3	–	–	LOEC (log10 uM) [5]: 0.845
hDFCGF CollagenIII down	1.78	–	–	1.3	–	1.3	LOEC (log10 uM) (Azathioprine): 0.977 ± 0.71; LOEC (log10 uM) [8]: 0.477; LOEC (log10 uM) [9]: 1.3
hDFCGF TIMP2 down	–	1.78	1.54 ± 0.34	1.3	–	–	–
BE3C MMP9 down	–	1.3	1.3	1.78	–	–	LOEC (log10 uM) [5]: 0.573 ± 0.39
LPS VCAM1 down	1.78	–	–	–	1.78	1.78	LOEC (log10 uM) (Azathioprine): 1.22 ± 0.37
hDFCGF MIG down	1.54 ± 0.34	–	1.78	1.3	1.3	–	LOEC (log10 uM) [8]: 0.716 ± 0.34
hDFCGF IP10 down	1.54 ± 0.34	1.3	1.07 ± 0.32	1.3	1.3	–	LOEC (log10 uM) (Azathioprine): 1.22 ± 0.37; LOEC (log10 uM) [8]: 0.239 ± 0.34
hDFCGF ICAM1 down	–	–	–	1.07 ± 0.32	1.78	–	LOEC (log10 uM) [5]: 1.78
BE3C uPA down	–	1.78	–	1.78	–	–	–
BE3C MIG down	–	1.78	–	1.78	–	–	–
